As usually defined, the pA2 is a measure of antagonist potency on a negative log scale. High values mean higher antagonist potency, low ones lower antagonist potency.

The target of this assay is T1, Adrenergic receptor alpha-1 (Rattus norvegicus, UniProt P15823+P23944+P43140).
T1 sequence (P15823 whole entry): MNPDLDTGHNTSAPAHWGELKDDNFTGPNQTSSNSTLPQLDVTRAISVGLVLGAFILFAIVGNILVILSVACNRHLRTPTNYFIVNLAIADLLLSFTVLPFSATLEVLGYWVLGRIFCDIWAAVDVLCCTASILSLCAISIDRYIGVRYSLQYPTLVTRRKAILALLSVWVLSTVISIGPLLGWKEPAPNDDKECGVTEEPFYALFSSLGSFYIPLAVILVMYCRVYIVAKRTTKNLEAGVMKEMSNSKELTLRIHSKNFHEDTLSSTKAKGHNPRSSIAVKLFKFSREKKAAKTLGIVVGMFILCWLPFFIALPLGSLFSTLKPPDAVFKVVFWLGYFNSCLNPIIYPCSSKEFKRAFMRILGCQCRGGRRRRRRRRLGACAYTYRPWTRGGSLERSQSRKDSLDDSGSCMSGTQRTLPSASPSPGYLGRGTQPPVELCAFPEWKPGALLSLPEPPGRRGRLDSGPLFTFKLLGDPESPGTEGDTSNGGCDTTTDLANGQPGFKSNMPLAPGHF
T1 sequence (P23944 whole entry): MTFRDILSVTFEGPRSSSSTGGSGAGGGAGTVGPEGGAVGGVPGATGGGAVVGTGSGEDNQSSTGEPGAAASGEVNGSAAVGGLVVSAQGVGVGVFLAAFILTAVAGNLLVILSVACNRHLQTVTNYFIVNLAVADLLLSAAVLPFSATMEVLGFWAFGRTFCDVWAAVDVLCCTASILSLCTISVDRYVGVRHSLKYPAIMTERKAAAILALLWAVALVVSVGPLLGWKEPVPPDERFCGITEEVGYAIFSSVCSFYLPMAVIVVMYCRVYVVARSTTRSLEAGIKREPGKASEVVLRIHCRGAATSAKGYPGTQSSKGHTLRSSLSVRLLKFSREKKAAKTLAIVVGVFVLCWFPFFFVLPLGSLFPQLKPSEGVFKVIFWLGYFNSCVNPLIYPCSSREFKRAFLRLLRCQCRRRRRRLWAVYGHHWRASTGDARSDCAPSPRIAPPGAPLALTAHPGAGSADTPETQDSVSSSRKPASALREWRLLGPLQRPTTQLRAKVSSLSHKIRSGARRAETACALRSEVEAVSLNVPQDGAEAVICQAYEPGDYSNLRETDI
T1 sequence (P43140 whole entry): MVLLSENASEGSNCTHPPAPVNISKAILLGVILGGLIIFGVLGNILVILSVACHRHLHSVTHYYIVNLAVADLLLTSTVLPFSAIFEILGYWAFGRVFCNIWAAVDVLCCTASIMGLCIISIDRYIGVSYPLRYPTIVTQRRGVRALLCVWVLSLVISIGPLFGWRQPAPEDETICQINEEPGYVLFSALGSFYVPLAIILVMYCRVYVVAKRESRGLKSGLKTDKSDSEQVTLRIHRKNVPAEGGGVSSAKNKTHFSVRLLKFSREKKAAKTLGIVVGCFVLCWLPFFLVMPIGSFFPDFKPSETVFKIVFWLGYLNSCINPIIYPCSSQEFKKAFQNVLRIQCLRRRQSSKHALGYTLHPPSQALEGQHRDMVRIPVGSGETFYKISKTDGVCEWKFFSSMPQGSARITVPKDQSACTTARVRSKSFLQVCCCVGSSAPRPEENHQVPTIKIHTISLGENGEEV
Nature of the assay: Antagonistic activity for Alpha-1 adrenergic receptor was measured as inhibition of phenylephrine-[…] contractions in isolated Sprague-Dawley rat anacoccygeal muscles. It counts as functional.
The compound `COc1ccccc1N1CCN(CCNC(=O)c2ccco2)CC1` registered a pA2 of 9.12.
Turning to `Cc1ccc(N2CCN(CCNC(=O)c3ccco3)CC2)c(C)c1`, the pA2 came out at 7.72.
In turn, `Cc1ccc(N2CCN(CCNC(=O)c3cccnc3)CC2)cc1` came in with a pA2 of 6.53.
`COc1cccc(N2CCN(CCNC(=O)c3ccco3)CC2)c1` had a pA2 of 8.56.
As to `COc1ccc(N2CCN(CCNC(=O)c3ccco3)CC2)cc1`, the pA2 worked out at 7.85.
The compound `Cc1ccc(N2CCN(CCNC(=O)c3ccncc3)CC2)cc1` had a pA2 of 6.5.
The value for `COc1ccccc1N1CCN(CCNC(=O)c2cc3ccccc3oc2=O)CC1` was 7.71; that for `COc1ccc(Cl)cc1N1CCN(CCNC(=O)c2ccco2)CC1` was 8.56; that for `COc1ccc(N2CCN(CCNC(=O)c3ccncc3)CC2)cc1` was 5.95.
The value for `COc1ccc(Cl)cc1N1CCN(CCNC(=O)c2cc3ccccc3o2)CC1` was 5.63; that for `Cc1ccc(N2CCN(CCNC(=O)c3cc4ccccc4o3)CC2)cc1` was 6.92.
`Cc1ccc(N2CCN(CCNC(=O)c3cccnc3)CC2)c(C)c1` had a pA2 of 5.94.
In turn, `COc1ccccc1N1CCN(CCNC(=O)c2cccnc2)CC1` came in with a pA2 of 7.87.
`Cc1ccc(N2CCN(CCNC(=O)c3cc4ccccc4o3)CC2)c(C)c1` returned a pA2 of 7.36.
`COc1ccc(N2CCN(CCNC(=O)c3cccnc3)CC2)cc1` displayed a pA2 of 5.79.
`COc1ccc(Cl)cc1N1CCN(CCNC(=O)c2cc3ccccc3oc2=O)CC1`: the pA2 turned out to be 7.31.
Turning to `Cc1ccc(N2CCN(CCNC(=O)c3ccco3)CC2)cc1`, the pA2 is 6.47.
The compound `COc1ccc(Cl)cc1N1CCN(CCNC(=O)c2ccncc2)CC1` had a pA2 of 7.18.
As for `COc1ccc(N2CCN(CCNC(=O)c3cc4ccccc4oc3=O)CC2)cc1`, the pA2 was 7.74.
`COc1ccc(Cl)cc1N1CCN(CCNC(=O)c2cccnc2)CC1` registered a pA2 of 5.56.
In turn, `Cc1ccc(N2CCN(CCNC(=O)c3ccncc3)CC2)c(C)c1` yielded a pA2 of 7.07.

These data come from ChEMBL document CHEMBL1139644, “Pharmacophore-based design, synthesis, biological evaluation, and 3D-QSAR studies of aryl-piperazines as alpha(1)-adrenoceptor antagonists” (Bioorg Med Chem Lett, 2005).
